Laboratory results: patent US20250154172A1, “PRMT5 INHIBITORS AND USES THEREOF” (Gilead Sciences, Inc., priority 2023, published 2025)

System: HCT116 MTAP-deleted cell lines
Test: Cell viability assay for HCT116 isogenic pair (CellTitre-Glo, 7 days)
Assay type: cell-based
Settings: Homo sapiens, HCT-116, 168 h, 7 days of treatment, cell line not given
Procedure: Control compounds were analyzed in parallel each time for quality control.
In Brief, on Day −1, a serial dilution of stock compounds in DMSO was performed using BioMek liquid handlers and dispensed using Echo acoustic dispenser into 384 well plates. Both tool compounds and sample compounds were spotted in the same plate for a dose response of PRMT5 inhibitors. Compound plates were stored as frozen until the cells were ready for seeding.
On Day 0, 100 HCT WT or HCT116 MTAP-deleted cells were seeded in compound-containing 384 well plates (50 μl per well) in RPMI 1640 media supplemented with 10% heat inactivated fetal bovine serum, Glutamax and penicillin streptomycin using EL460 liquid dispenser 5 μl cassette (BioTek, part no. 7170011). After equilibrating the plate in room temperature, the cells were incubated for 7 days inside the sealed incubator set at 37° C. with 90% humidity and 5% CO2.
On Day 7, the viability of cells was measured using a CTG assay kit (CellTitre-Glo; Promega cat no. G7573). Shortly, 40 μl per well of luminescent cell viability assay reagent were dispensed using EL460 liquid dispenser 5 μl cassette. CTG luminescence signal was measured using an EnVision plate reader (PerkinElmer) in accordance with manufacturer's instruction. The CCso values for each compound after 7 days of treatment were calculated using 4 parameter non-linear logistical curve fit.
For the cell viability assay ie CC50 shown in nM in Table 3.

| SMILES | CC50 |
| --- | --- |
| Nc1nc2cnc(C(=O)N3CCC[C@@H]4Oc5cc(C(F)(F)F)ccc5[C@@H]43)cc2c2c1COC2 (racemic) [Example Ca-1, (Rac)-(4-amino-1,3-dihydrofuro[3,4-c][1,7]naphthyridin-8-yl)((4aS,9bS)-7-(trifluoromethyl)-3,4,4a,9b-tetrahydrobenzofuro[3,2-b]pyridin-1(2H)-yl)methanone] | 26 nM |
| COc1ccc2c(c1)CO[C@H]1CCCN(C(=O)c3ccc4nc(N)c5cnn(C)c5c4c3)[C@@H]21 (racemic) [Example Ca-8, Rac-(4-amino-1-methyl-1H-pyrazolo[4,3-c]quinolin-8-yl)((4aS,10bS)-8-methoxy-2,3,4,4a,6,10b-hexahydro-1H-isochromeno[4,3-b]pyridin-1-yl)methanone] | 23 nM |
| Cn1ncc2c(N)nc3cc(F)c(C(=O)N4CCO[C@@H]5Cc6cc(C(F)(F)F)ccc6[C@@H]54)cc3c21 (racemic) [Example Ca-10, (Rac)-(4-amino-7-fluoro-1-methyl-1H-pyrazolo[4,3-c]quinolin-8-yl)(7-(trifluoromethyl)-2,3,9,9a-tetrahydroindeno[2,1-b][1,4]oxazin-4(4aH)-yl)methanone] | 10 nM |
| Cn1ncc2c(N)nc3ccc(C(=O)N4CCO[C@@H]5Cc6cc(C(F)(F)F)ccc6[C@@H]54)cc3c21 (racemic) [Example Ca-11, (Rac)-(4-amino-1-methyl-1H-pyrazolo[4,3-c]quinolin-8-yl)(7-(trifluoromethyl)-2,3,9,9a-tetrahydroindeno[2,1-b][1,4]oxazin-4(4aH)-yl)methanone] | 65 nM |
| Cn1ncc2c(N)nc3ccc(C(=O)N4CCO[C@@H]5Cc6cc(Br)ccc6[C@@H]54)cc3c21 (racemic) [Example Ca-12, (Rac)-(4-amino-1-methyl-1H-pyrazolo[4,3-c]quinolin-8-yl)(7-bromo-2,3,9,9a-tetrahydroindeno[2,1-b][1,4]oxazin-4(4aH)-yl)methanone] | 53 nM |
| Cn1ncc2c(N)nc3cnc(C(=O)N4CCC5CC4c4ccc(C(F)(F)F)cc45)cc3c21 (racemic) [Example Ca-14, (Rac)-(4-amino-1-methyl-1H-pyrazolo[4,3-c][1,7]naphthyridin-8-yl)((1R,5S)-7-(trifluoromethyl)-1,3,4,5-tetrahydro-2H-1,5-methanobenzo[c]azepin-2-yl)methanone] | 16 nM |
| Cn1ncc2c(N)nc3cnc(C(=O)N4CCC[C@@H]5Oc6cc(OC(F)F)c(F)cc6[C@@H]54)cc3c21 (racemic) [Example Ca-21, (Rac)-(4-amino-1-methyl-11H-pyrazolo[4,3-c][1,7]naphthyridin-8-yl)(7-(difluoromethoxy)-8-fluoro-3,4,4a,9b-tetrahydrobenzofuro[3,2-b]pyridin-1(2H)-yl)methanone] | 15 nM |
| Nc1nc2cnc(C(=O)N3CCC[C@@H]4Cc5cc(C(F)(F)F)ccc5[C@@H]43)cc2c2c1COC2 (racemic) [Example Ca-23, (Rac)-(4-amino-1,3-dihydrofuro[3,4-c][1,7]naphthyridin-8-yl)((4aR,9bR)-7-(trifluoromethyl)-2,3,4,4a,5,9b-hexahydro-1H-indeno[1,2-b]pyridin-1-yl)methanone] | 134 nM |
| Cn1ncc2c(N)nc3cnc(C(=O)N4CCC[C@@H]5Cc6cc(C(F)(F)F)ccc6[C@@H]54)cc3c21 (racemic) [Example Ca-24, (Rac)-(4-amino-1-methyl-1H-pyrazolo[4,3-c][1,7]naphthyridin-8-yl)((4aR,9bR)-7-(trifluoromethyl)-2,3,4,4a,5,9b-hexahydro-1H-indeno[1,2-b]pyridin-1-yl)methanone] | 42 nM |
| Nc1nc2cnc(C(=O)N3CCC[C@@H]4Oc5nc(C(F)(F)F)ccc5[C@@H]43)cc2c2c1COC2 (racemic) [Example Ca-32, Rac-(4-amino-1,3-dihydrofuro[3,4-c][1,7]naphthyridin-8-yl)((4aS,9bS)-7-(trifluoromethyl)-3,4,4a,9b-tetrahydrofuro[2,3-b:4,5-b′]dipyridin-1(2H)-yl)methanone] | 54 nM |
| C[C@@H]1C[C@@H]2CCc3cc(C(F)(F)F)ccc3[C@@H]2N(C(=O)c2cc3c(cn2)nc(N)c2cnn(C)c23)C1 (racemic) [Example Ca-39, (Rac)-(4-amino-1-methyl-1H-pyrazolo[4,3-c][1,7]naphthyridin-8-yl)((3R,4aS,10bR)-3-methyl-8-(trifluoromethyl)-3,4,4a,5,6,10b-hexahydrobenzo[h]quinolin-1(2H)-yl)methanone] | 79 nM |
| C[C@@H]1C[C@@H]2CCc3cc(C(F)(F)F)ccc3[C@@H]2N(C(=O)c2cc3c4c(c(N)nc3cn2)COC4)C1 (racemic) [Example Ca-40, (Rac)-(4-amino-1,3-dihydrofuro[3,4-c][1,7]naphthyridin-8-yl)((3R,4aS,10bR)-3-methyl-8-(trifluoromethyl)-3,4,4a,5,6,10b-hexahydrobenzo[h]quinolin-1(2H)-yl)methanone] | 179 nM |
| C[C@@H]1CC[C@@H]2Oc3cc(OC(F)(F)F)ccc3[C@@H]2N1C(=O)c1cc2c(cn1)nc(N)c1cnn(C)c12 (racemic) [Example Ca-41, (Rac)-(4-amino-1-methyl-1H-pyrazolo[4,3-c][1,7]naphthyridin-8-yl)((2R,4aS,9bS)-2-methyl-7-(trifluoromethoxy)-3,4,4a,9b-tetrahydrobenzofuro[3,2-b]pyridin-1(2H)-yl)methanone] | 30 nM |
| Cn1ncc2c(N)nc3ccc(C(=O)N4CC[C@@H]5Oc6cc(C(F)(F)F)ccc6[C@@H]54)cc3c21 (racemic) [Example Ca-55, Rac-(4-amino-1-methyl-1H-pyrazolo[4,3-c]quinolin-8-yl)((3aS,8bS)-6-(trifluoromethyl)-2,3,3a,8b-tetrahydro-1H-benzofuro[3,2-b]pyrrol-1-yl)methanone] | 106 nM |
| CN(C(=O)c1cc2c(cn1)nc(N)c1cnn(C)c12)[C@H]1c2ccc(C(F)(F)F)cc2[C@@H]2C[C@@H]21 (single isomer, unassigned) [Example Ca-25] | 43 nM |
| CN(C(=O)c1cc2c(cn1)nc(N)c1cnn(C)c12)[C@H]1c2ccc(C(F)(F)F)cc2[C@H]2C[C@H]21 (single isomer, unassigned) [Example Ca-26] | 25 nM |
| CN(C(=O)c1cc2c(cn1)nc(N)c1cnn(C)c12)[C@@H]1c2ccc(C(F)(F)F)cc2[C@H]2C[C@H]21 (single isomer, unassigned) [Example Ca-27] | 88 nM |
| CN(C(=O)c1cc2c(cn1)nc(N)c1cnn(C)c12)[C@@H]1c2ccc(C(F)(F)F)cc2[C@@H]2C[C@H]12 (single isomer, unassigned) [Example Ca-28] | 1290 nM |
| C[C@@H]1CN(C(=O)c2cc3c(cn2)nc(N)c2cnn(C)c23)[C@H]2c3ccc(Br)c(F)c3C[C@H]2O1 (single isomer, unassigned) [Example Ca-30] | 75 nM |
| C[C@H]1CN(C(=O)c2cc3c(cn2)nc(N)c2cnn(C)c23)[C@H]2c3ccc(Br)c(F)c3C[C@H]2O1 (single isomer, unassigned) [Example Ca-31] | 32 nM |
| C[C@@H]1CN(C(=O)c2cc3c(cn2)nc(N)c2cnn(C)c23)[C@H]2c3ccc(Cl)cc3C[C@H]2O1 (single isomer, unassigned) [Example Ca-37] | 22 nM |
| C[C@H]1CN(C(=O)c2cc3c(cn2)nc(N)c2cnn(C)c23)[C@H]2c3ccc(Cl)cc3C[C@H]2O1 (single isomer, unassigned) [Example Ca-38] | 129 nM |
| Cn1ncc2c(N)nc3cc(Cl)c(C(=O)N4CCC[C@H]5Oc6cc(C(F)(F)F)ccc6[C@H]54)cc3c21 (stereo in doubt) [Example Ca-3, (4-amino-7-chloro-1-methyl-1H-pyrazolo[4,3-c]quinolin-8-yl)((4aR,9bR)-7-(trifluoromethyl)-3,4,4a,9b-tetrahydrobenzofuro[3,2-b]pyridin-1(2H)-yl)methanone] | 5 nM |
| Cn1ncc2c(N)nc3cnc(C(=O)N4CC[C@H]5C[C@@H]4c4ccc(C(F)(F)F)nc4O5)cc3c21 [Example Ca-2, (4-amino-1-methyl-1H-pyrazolo[4,3-c][1,7]naphthyridin-8-yl)((2S,6R)-9-(trifluoromethyl)-3,4-dihydro-2H-2,6-methanopyrido[2,3-b][1,5]oxazocin-5(6H)-yl)methanone] | 8 nM |
| Cn1ncc2c(N)nc3cc(F)c(C(=O)N4CCC[C@@H]5Oc6cc(C(F)(F)F)ccc6[C@@H]54)cc3c21 [Example Ca-4, (4-amino-7-fluoro-1-methyl-1H-pyrazolo[4,3-c]quinolin-8-yl)((4aS,9bS)-7-(trifluoromethyl)-3,4,4a,9b-tetrahydrobenzofuro[3,2-b]pyridin-1(2H)-yl)methanone] | 3 nM |
| Cn1ncc2c(N)nc3ccc(C(=O)N4CCC[C@@H]5Oc6cc(C(F)(F)F)ccc6[C@@H]54)cc3c21 [Example Ca-5, (4-amino-1-methyl-1H-pyrazolo[4,3-c]quinolin-8-yl)((4aS,9bS)-7-(trifluoromethyl)-3,4,4a,9b-tetrahydrobenzofuro[3,2-b]pyridin-1(2H)-yl)methanone] | 8 nM |
| Cn1ncc2c(N)nc3cnc(C(=O)N4CCC[C@@H]5Oc6cc(OC(F)(F)F)ccc6[C@@H]54)cc3c21 [Example Ca-6, (4-amino-1-methyl-1H-pyrazolo[4,3-c][1,7]naphthyridin-8-yl)((4aS,9bS)-7-(trifluoromethoxy)-3,4,4a,9b-tetrahydrobenzofuro[3,2-b]pyridin-1(2H)-yl)methanone] | 8 nM |
